# In US20240109912A1, “TRICYCLIC PYRIMIDINES AS CYCLIN-DEPENDENT KINASE 7 (CDK7) INHIBITORS” (JANSSEN PHARMACEUTICA NV, priority 2020, published 2024):
# pIC50: −log10 of the molar value. Several values for one entry are separate records, joined by “and”; a condition that tells them apart may be missing. Equal entries are not always repeated. Where two headings read alike, the source gives them in different places.
# Key:
# [1] = molecular target: CDK7/cyclinH/MAT1 trimeric complex (Homo sapiens (Human), UniProt P50613); assay: In vitro CDK7 assay, potency of irreversible covalent inhibitors (kinact/KI)
# [2] = test system: RNA polymerase II Serine 5 phosphorylation (CDK7) in A549 cells
# [3] = test system: RNA polymerase II Serine 5 phosphorylation in A549 cells overexpressing CDK7 mutant (C312S); assay: Imaging-based cellular RNA PolII Ser5 phosphorylation assay in A549 cells overexpressing CDK7-mutant (C312S); type: cell-based, human; conditions: for IC50: Homo sapiens, A549, A549 cells overexpressing CDK7 mutant (C312S), read-out: CDK7_ A549 mutant hCDK7(pIC50) (converted); for CDK7_ A549 mutant hCDK7(pIC50): A549 cells overexpressing CDK7 mutant (C312S)
# In short: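 A stably transduced A549 pool overexpressing CDK7 C312S, a mutant that blocks covalent binding at Cys312, while retaining endogenous wild-type CDK7 was used. Ser5 phosphorylation was measured by imaging, and IC50 values were derived.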
# [4] = CDK7 (20 nM enz.) (KI, μM), 20 nM enz.
# [5] = read-out: CDK7 (20 nM enz.) (kinact, s^−1), 20 nM enz.
# [6] = read-out: CDK7 (20 nM enz.) (kinact/ KI, M^−1*s^−1), 20 nM enz.
# Sequence of CDK7/cyclinH/MAT1 trimeric complex (P50613 whole entry): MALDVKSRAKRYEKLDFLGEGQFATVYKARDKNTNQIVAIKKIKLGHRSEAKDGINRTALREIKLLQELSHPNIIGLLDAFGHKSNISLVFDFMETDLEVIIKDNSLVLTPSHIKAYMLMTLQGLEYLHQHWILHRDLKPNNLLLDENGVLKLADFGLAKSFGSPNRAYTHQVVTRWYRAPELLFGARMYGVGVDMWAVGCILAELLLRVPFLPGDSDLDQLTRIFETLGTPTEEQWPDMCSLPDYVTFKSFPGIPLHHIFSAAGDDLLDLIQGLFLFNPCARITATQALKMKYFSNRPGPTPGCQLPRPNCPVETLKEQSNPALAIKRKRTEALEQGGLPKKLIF
# Sequence of CDK7/cyclinH/MAT1 trimeric complex (P51946 whole entry partner): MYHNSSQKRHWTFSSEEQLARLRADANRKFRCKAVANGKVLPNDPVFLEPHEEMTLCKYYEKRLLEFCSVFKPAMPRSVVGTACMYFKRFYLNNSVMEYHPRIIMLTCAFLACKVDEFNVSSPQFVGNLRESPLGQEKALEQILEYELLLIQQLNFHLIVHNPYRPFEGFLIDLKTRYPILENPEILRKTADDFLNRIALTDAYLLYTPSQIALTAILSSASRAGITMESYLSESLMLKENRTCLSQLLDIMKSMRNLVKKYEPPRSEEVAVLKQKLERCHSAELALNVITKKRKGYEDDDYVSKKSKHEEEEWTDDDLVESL
# Sequence of CDK7/cyclinH/MAT1 trimeric complex (P51948 whole entry partner): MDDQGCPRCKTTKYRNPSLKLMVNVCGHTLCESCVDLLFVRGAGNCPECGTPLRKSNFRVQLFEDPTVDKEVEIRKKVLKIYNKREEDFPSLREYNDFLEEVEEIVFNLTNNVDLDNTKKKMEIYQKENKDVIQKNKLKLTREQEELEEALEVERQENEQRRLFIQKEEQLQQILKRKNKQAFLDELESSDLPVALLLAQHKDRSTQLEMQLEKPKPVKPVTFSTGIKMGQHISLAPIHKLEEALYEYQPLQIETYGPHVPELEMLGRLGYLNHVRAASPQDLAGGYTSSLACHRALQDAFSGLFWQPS
Structure (SMILES),"Ki [1, 4]","kinact [1, 5]","kinact/KI [1, 6]",pIC50 [2],melting point,IC50 [3],"CDK7 (20 nM enz.) (kinact, s^−1) ([1]; 20 nM enz.)","CDK7 (20 nM enz.) (kinact/ KI, M^−1*s^−1) ([1]; 20 nM enz.)",CDK7_ A549 mutant hCDK7(pIC50) [3],"Ki ([1]; CDK7 (KI(μM)), Table B)","kinact ([1]; read-out: CDK7 (kinact, s^−1), Table B)","kinact/KI ([1]; read-out: CDK7 (kinact/KI, M^−1*s^−1), Table B)","CDK7 (20 nM enz.) (kobs/[I], M^−1*s^−1) ([1]; 20 nM enz.)","kinact/KI ([1]; read-out: CDK7 (20 nM enz.) (kobs/[I], M^−1*s^−1), 20 nM enz.)"
"C=CC(=O)N1CCC(N2CC(c3cc(C)c4c(c3)Nc3ncnc(N5CCS(=O)(=O)CC5)c3[C@@H](C)O4)C2)CC1 (single isomer, unassigned) [compound 102]",,,,6.73 and 6.76 and 6.82 and 6.83,227 °C,> 10000 nM,,,,,,,,
"C=CC(=O)N1CC[C@@H](N2CCC(c3cc(C)c4c(c3)Nc3ncnc(N5CCS(=O)(=O)CC5)c3CO4)CC2)C1 (single isomer, unassigned) [compound 114]",0.0288 µM and 0.0678 µM,4.67e-05 s⁻¹,1620 M⁻¹ s⁻¹,7.29 and 7.55,251 °C,~10000 nM,8.94e-05 s⁻¹,1318 M⁻¹ s⁻¹,<5,,,,,
"C=CC(=O)N1CC[C@@H](N2CC(c3cc(C)c4c(c3)Nc3ncnc(N5CCS(=O)(=O)CC5)c3[C@@H](C)O4)C2)C1 (single isomer, unassigned) [compound 122]",0.0292 µM,,,7.09 and 7.10 and 7.21,237 °C,,4.85e-05 s⁻¹,1658.55 M⁻¹ s⁻¹ and 891.412 M⁻¹ s⁻¹,<5,,,,,
"CC#CC(=O)N1CCC(N2CC(c3cc(C)c4c(c3)Nc3ncnc(N5CCS(=O)(=O)CC5)c3[C@@H](C)O4)C2)CC1 (single isomer, unassigned) [compound 124]",,,,6.60 and 6.86,292 °C,> 10000 nM,,,,,,,,
"CC#CC(=O)N1CCC(N2CC(c3cc(C)c4c(c3)Nc3ncnc(N5CCS(=O)(=O)CC5)c3[C@H](C)O4)C2)CC1 (single isomer, unassigned) [compound 125]",,,,~7.75 and ~7.57,203 °C,6760 nM,,,5.26,,,,,
C=CC(=O)N1CCC(N2CCC(c3ccc4c(c3)Nc3ncnc(N5CCOCC5)c3CO4)CC2)CC1 [compound 2],0.754 µM,6.34e-05 s⁻¹,98.7 M⁻¹ s⁻¹,6.48 and 6.49,211 °C,> 10000 nM,,,,0.365 µM,0.000198 s⁻¹,543 M⁻¹ s⁻¹,,
C=CC(=O)N1CCN(C2CN(c3ccc4c(c3)Nc3ncnc(N5CCOCC5)c3CO4)C2)CC1 [compound 4],,,,< 5.00,151 °C,> 10000 nM,,,,,,,,
C=CC(=O)N1CC(N2CC=C(c3ccc4c(c3)Nc3ncnc(N5CCOCC5)c3CO4)CC2)C1 [compound 33],,,,5.63,193 °C,> 10000 nM,,,,,,,,
C=CC(=O)N1CC(N2CCC(c3cc(C)c4c(c3)Nc3ncnc(N5CCS(=O)(=O)CC5)c3CO4)CC2)C1 [compound 101],0.077 µM and 0.0323 µM,5.87e-05 s⁻¹,,,169 °C,> 10000 nM,8.74e-05 s⁻¹,,,,,,1455 M⁻¹ s⁻¹,1460 M⁻¹ s⁻¹

# Further lines, results first:
"Ki [1, 4]","kinact [1, 5]","kinact/KI [1, 6]",pIC50 [2],melting point,IC50 [3],"CDK7 (20 nM enz.) (kinact, s^−1) ([1]; 20 nM enz.)","CDK7 (20 nM enz.) (kinact/ KI, M^−1*s^−1) ([1]; 20 nM enz.)",CDK7_ A549 mutant hCDK7(pIC50) [3],"Ki ([1]; CDK7 (KI(μM)), Table B)","kinact ([1]; read-out: CDK7 (kinact, s^−1), Table B)","kinact/KI ([1]; read-out: CDK7 (kinact/KI, M^−1*s^−1), Table B)","CDK7 (20 nM enz.) (kobs/[I], M^−1*s^−1) ([1]; 20 nM enz.)","kinact/KI ([1]; read-out: CDK7 (20 nM enz.) (kobs/[I], M^−1*s^−1), 20 nM enz.)",Structure (SMILES)
0.277 µM,6.26e-05 s⁻¹,226 M⁻¹ s⁻¹,6.37,> 300 °C,> 10000 nM,,,,,,,,,"C=CC(=O)N1CC[C@@H](N2CC(c3cc4c(c(C5CC5)c3)OCc3c(ncnc3N3CCS(=O)(=O)CC3)N4)C2)C1 (single isomer, unassigned) [compound 93]"
0.498 µM,8.53e-05 s⁻¹,171 M⁻¹ s⁻¹,6.27,167 °C,> 10000 nM,,,,,,,,,"C=CC(=O)N1CC[C@H](N2CC(c3cc4c(c(C5CC5)c3)OCc3c(ncnc3N3CCS(=O)(=O)CC3)N4)C2)C1 (single isomer, unassigned) [compound 94]"
0.0708 µM,2.35e-05 s⁻¹,332 M⁻¹ s⁻¹,~6.02,193 °C,> 10000 nM,,,,,,,,,"C=CC(=O)N1CC[C@H](N2CC(c3cc4c(c(C5CC5)c3)O[C@H](C)c3c(ncnc3N3CCS(=O)(=O)CC3)N4)C2)C1 (single isomer, unassigned) [compound 95]"
0.0324 µM,2.16e-05 s⁻¹,665 M⁻¹ s⁻¹,6.28,233 °C,> 10000 nM,,,,,,,,,"C=CC(=O)N1CC[C@@H](N2CC(c3cc4c(c(C5CC5)c3)O[C@H](C)c3c(ncnc3N3CCS(=O)(=O)CC3)N4)C2)C1 (single isomer, unassigned) [compound 96]"
,,,6.60,232 °C,~10000 nM,,,,,,,,,C=CC(=O)N1CC[C@H](N2CC(c3cc(C)c4c(c3)Nc3ncnc(N5CCS(=O)(=O)CC5)c3CO4)C2)C1 [compound 90]
,,,6.37,241 °C,> 10000 nM,,,,,,,,,C=CC(=O)N1CC[C@@H](N2CC(c3cc(C)c4c(c3)Nc3ncnc(N5CCS(=O)(=O)CC5)c3CO4)C2)C1 [compound 92]
